From ChEMBL document CHEMBL5344475, “Indole-containing pharmaceuticals: targets, pharmacological activities, and SAR studies” (RSC Med Chem, 2024)

What was measured:
[1] = Volume of distribution in human at 80 to 100 mg; format: ADME; conditions: dose 80-100 mg
Half life in human = conditions: in vivo
[2] = Oral bioavailability in human; format: ADME, organism-based; conditions: in vivo
[3] = Volume of distribution in human; format: ADME
[4] = Half life in human plasma; format: ADME, cell-free
[5] = Elimination half life in human; format: ADME; conditions: read-out: beta t1/2 (converted)
[6] = target: 5-hydroxytryptamine receptor 2B (Homo sapiens, UniProt P41595); assay: Binding affinity to 5-HT2B receptor (unknown origin) assessed as inhibition constant
[7] = Apparent oral clearance in human
[8] = Oral bioavailability in mouse; format: ADME, organism-based; conditions: in vivo
[9] = Tmax in human; format: ADME
[10] = Plasma clearance in iv dosed human
[11] = Terminal half life in human at 10 mg/kg, iv; conditions: in vivo, read-out: beta t1/2 (converted)
[12] = Volume of distribution at steady state in iv dosed human; conditions: in vivo, read-out: Vdss
[13] = Effective half life in human; conditions: in vivo, read-out: t1/2eff (converted)
[14] = Apparent volume of distribution in Sprague-Dawley rat at 1 mg/kg, iv; format: ADME, organism-based; conditions: in vivo
[15] = Cmax in human at 4 mg, po; format: ADME; set-up: dose 4 mg, route po; conditions: in vivo
[16] = Tmax in human plasma; format: ADME, cell-free
[17] = Cmax in human plasma; format: ADME, cell-free
[18] = AUC (0 to 24 hrs) in human at 40 mg, po by LC-MS/MS analysis; conditions: in vivo
[19] = Terminal half life in human; format: ADME; conditions: read-out: beta t1/2 (converted)
[20] = Terminal half life in iv dosed mouse; format: ADME, organism-based; conditions: in vivo, read-out: beta t1/2 (converted)
[21] = Blood clearance in Wistar rat at 0.3 mg/kg, iv; format: ADME, organism-based
[22] = Plasma clearance in iv dosed human; conditions: in vivo
[23] = Volume of distribution at steady state in human; conditions: in vivo, read-out: Vdss
[24] = Initial half life in iv dosed mouse; conditions: in vivo, read-out: beta t1/2
[25] = Apparent oral clearance in human at 100 mg, po by LC-MS/MS analysis; format: ADME, organism-based; conditions: in vivo
[26] = target: 5-hydroxytryptamine receptor 1B (Homo sapiens, UniProt P28222); assay: Binding affinity to 5-HT1B receptor (unknown origin) assessed as inhibition constant
[27] = target: 5-hydroxytryptamine receptor 1D (Homo sapiens, UniProt P28221); assay: Binding affinity to 5-HT1DR (unknown origin) assessed as inhibition constant
Sequence of 5-hydroxytryptamine receptor 1D (P28221 whole entry): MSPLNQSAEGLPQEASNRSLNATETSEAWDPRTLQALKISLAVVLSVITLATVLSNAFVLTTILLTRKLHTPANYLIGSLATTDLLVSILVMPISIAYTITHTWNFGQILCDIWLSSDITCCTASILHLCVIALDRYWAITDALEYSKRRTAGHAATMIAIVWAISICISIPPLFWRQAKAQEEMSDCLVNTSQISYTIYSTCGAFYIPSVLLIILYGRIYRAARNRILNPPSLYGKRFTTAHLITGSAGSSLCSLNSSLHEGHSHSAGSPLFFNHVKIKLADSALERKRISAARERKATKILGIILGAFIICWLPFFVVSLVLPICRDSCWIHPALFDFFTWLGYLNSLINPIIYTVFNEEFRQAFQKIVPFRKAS

Sequence of 5-hydroxytryptamine receptor 1B (P28222 whole entry): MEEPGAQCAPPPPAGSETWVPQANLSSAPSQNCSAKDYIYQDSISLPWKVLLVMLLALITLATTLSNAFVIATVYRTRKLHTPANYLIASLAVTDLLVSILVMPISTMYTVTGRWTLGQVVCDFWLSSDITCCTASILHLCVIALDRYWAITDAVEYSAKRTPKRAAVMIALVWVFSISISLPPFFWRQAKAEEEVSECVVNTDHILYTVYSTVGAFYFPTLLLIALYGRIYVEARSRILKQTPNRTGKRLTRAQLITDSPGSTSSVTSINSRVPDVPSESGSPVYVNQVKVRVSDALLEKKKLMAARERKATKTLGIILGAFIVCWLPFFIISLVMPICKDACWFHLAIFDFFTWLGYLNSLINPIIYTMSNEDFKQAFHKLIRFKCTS
Sequence of 5-hydroxytryptamine receptor 2B (P41595 whole entry): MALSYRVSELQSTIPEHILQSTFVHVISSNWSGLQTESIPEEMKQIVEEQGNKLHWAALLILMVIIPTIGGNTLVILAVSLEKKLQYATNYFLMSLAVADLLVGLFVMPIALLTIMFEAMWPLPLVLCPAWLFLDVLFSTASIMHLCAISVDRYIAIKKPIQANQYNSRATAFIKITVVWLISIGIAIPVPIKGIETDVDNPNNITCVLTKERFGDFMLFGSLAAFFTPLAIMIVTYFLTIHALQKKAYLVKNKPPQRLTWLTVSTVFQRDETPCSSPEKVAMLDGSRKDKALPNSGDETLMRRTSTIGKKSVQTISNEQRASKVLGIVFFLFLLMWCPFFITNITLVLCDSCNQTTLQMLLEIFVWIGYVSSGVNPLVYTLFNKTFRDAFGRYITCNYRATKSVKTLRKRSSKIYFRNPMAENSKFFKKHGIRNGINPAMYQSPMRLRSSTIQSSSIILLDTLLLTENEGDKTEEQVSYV

## CC[C@@H](CO)NC(=O)[C@@H]1C=C2c3cccc4[nH]cc(c34)C[C@H]2N(C)C1 [METHYLERGONOVINE]
[1]
  Vd: 2.4 L/kg
Half life in human
  half-life: 2.5 h
[2]
  bioavailability: 40%

## CO[C@@H]1[C@H](N(C)C(=O)c2ccccc2)C[C@H]2O[C@]1(C)n1c3ccccc3c3c4c(c5c6ccccc6n2c5c31)C(=O)NC4 [MIDOSTAURIN]
[3]
  Vd: 95.2 L
[4]
  half-life: 21 h

## Cc1nccn1CC1CCc2c(c3ccccc3n2C)C1=O (stereo unspecified) [ONDANSETRON]
[5]
  half-life: 3.1 h
[6]
  Ki: 2.5 nM
[2]
  bioavailability: 56%

## Cc1[nH]c2ccccc2c1CCNCc1ccc(/C=C/C(=O)NO)cc1 [PANOBINOSTAT]
[7]
  CL/F: 2670 mL/min
[4]
  half-life: 37 h

## CCCN1C[C@H](CSC)C[C@@H]2c3cccc4[nH]cc(c34)C[C@H]21 [PERGOLIDE]
[8]
  bioavailability: 55%

## CC(C)NCC(O)COc1cccc2[nH]ccc12 (stereo unspecified) [PINDOLOL]
[9]
  Tmax: 1 h
[1]
  Vd: 2 L/kg
Half life in human
  half-life: 3 h

## O=C1NCCN1CCN1CCC(c2cn(-c3ccc(F)cc3)c3ccc(Cl)cc23)CC1 [SERTINDOLE]
[1]
  Vd: 20 L/kg
Half life in human
  half-life: 53 h
[2]
  bioavailability: 75%

## CCCCCNC(=N)N/N=C/c1c[nH]c2ccc(OC)cc12 [TEGASEROD]
[10]
  clearance: 1280 mL/min
[11]
  half-life: 11 h
[12]
  Vd: 368 L

## CC(C)(CO)c1cc2cc(NC(=O)C3(c4ccc5c(c4)OC(F)(F)O5)CC3)c(F)cc2n1C[C@@H](O)CO [TEZACAFTOR]
[13]
  half-life: 25.1 h
[14]
  Vd/F: 82 L

## CN1[C@@H]2CC[C@H]1C[C@@H](OC(=O)c1c[nH]c3ccccc13)C2 [TROPISETRON]
[4]
  half-life: 5 h
[2]
  bioavailability: 60%

## CCOC(=O)c1c(CSc2ccccc2)n(C)c2cc(Br)c(O)c(CN(C)C)c12 [UMIFENOVIR]
[4]
  half-life: 17 h
[15]
  Cmax: 415 ng/mL
[16]
  Tmax: 0.65 h

## N#Cc1ccc2[nH]cc(CCCCN3CCN(c4ccc5oc(C(N)=O)cc5c4)CC3)c2c1 [VILAZODONE]
[17]
  Cmax: 156 ng/mL
[18]
  AUC: 1640 ng·h/mL
[19]
  half-life: 25 h

## CC[C@]1(O)C[C@@H]2CN(CCc3c([nH]c4ccccc34)[C@@](C(=O)OC)(c3cc4c(cc3OC)N(C)[C@H]3[C@@](O)(C(=O)OC)[C@H](OC(C)=O)[C@]5(CC)C=CCN6CC[C@]43[C@@H]65)C2)C1 [VINBLASTINE]
[20]
  half-life: 1.6 h

## CC[C@]12C=CCN3CC[C@@]4(c5cc([C@@]6(C(=O)OC)C[C@@H]7C[C@@H](C(C)(F)F)CN(Cc8c6[nH]c6ccccc86)C7)c(OC)cc5N(C)[C@H]4[C@@](O)(C(=O)OC)[C@@H]1OC(C)=O)[C@@H]32 [VINFLUNINE]
[21]
  clearance: 667 mL/min

## CCC1=C[C@@H]2CN(C1)Cc1c([nH]c3ccccc13)[C@@](C(=O)OC)(c1cc3c(cc1OC)N(C)[C@H]1[C@@](O)(C(=O)OC)[C@H](OC(C)=O)[C@]4(CC)C=CCN5CC[C@]31[C@@H]54)C2 [VINORELBINE]
[20]
  half-life: 24.8 h
[22]
  clearance: 16.2 mL/min/kg
[23]
  Vd: 25.4 L/kg
[11]
  half-life: 27.7 h

## COC(=O)[C@@H]1[C@H]2C[C@H]3c4[nH]c5ccccc5c4CCN3C[C@@H]2CC[C@@H]1O [YOHIMBINE]
[5]
  half-life: < 1 h
[24]
  half-life: 3.7 min

## COc1cc(C(=O)NS(=O)(=O)c2ccccc2C)ccc1Cc1cn(C)c2ccc(NC(=O)OC3CCCC3)cc12 [ZAFIRLUKAST]
[25]
  CL/F: 333 mL/min

## CN(C)CCc1c[nH]c2ccc(C[C@H]3COC(=O)N3)cc12 [ZOLMITRIPTAN]
[26]
  Ki: 0.4 nM
[27]
  Ki: 0.4 nM
